# Measured values taken from US6525001B1, “Substituted pyrimidine and pyridine herbicides” (Mid-American Commercialization Corporation, priority 1997, dated 2003).
# Tests used:
# Type in all cases: in vivo
# Design in all cases: key: 0 is no effect; 10 is complete control
# [1] = test system: bedstraw (Galium aparine); experiment: Test B pre-/postemergence
# How it was run: (§1)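 Compounds in a surfactant-containing, non-phytotoxic solvent blend are applied to freshly planted seed (preemergence) and, concurrently, to seedlings of 2 to 18 cm at 1–4 leaves (postemergence). Plants stay in the greenhouse twelve to sixteen days and are then scored visually from 0 (no effect) to 10 (complete control).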
# [2] = test system: blackgrass (Alopecurus myosuroides); experiment: Test B pre-/postemergence
# How it was run: as §1
# [3] = test system: broadleaf signalgrass (Brachiaria decumbens); experiment: Test B pre-/postemergence
# How it was run: as §1
# [4] = test system: cocklebur (Xanthium strumarium); experiment: Test B pre-/postemergence
# How it was run: as §1
# corn (Zea mays) = experiment: Test B pre-/postemergence
# How it was run: as §1
# [5] = test system: crabgrass (Digitaria sanguinalis); experiment: Test B pre-/postemergence
# How it was run: as §1
# [6] = test system: giant foxtail (Setaria faberii); experiment: Test B pre-/postemergence
# How it was run: as §1
# [7] = test system: momingglory (Ipomoea hederacea); experiment: Test B pre-/postemergence
# How it was run: as §1
# [8] = test system: pigweed (Amaranthus retroflexus); experiment: Test B pre-/postemergence
# How it was run: as §1
# [9] = test system: purple nutsedge (Cyperus rotundus); experiment: Test B pre-/postemergence
# How it was run: as §1
# rape (Brassica napus) = experiment: Test B pre-/postemergence
# How it was run: as §1
# soybean (Glycine max) = experiment: Test B pre-/postemergence
# How it was run: as §1
# [10] = test system: sugar beet (Beta vulgaris); experiment: Test B pre-/postemergence
# How it was run: as §1
# [11] = test system: velvetleaf (Abutilon theophrasti); experiment: Test B pre-/postemergence
# How it was run: as §1
# [12] = test system: wheat (Triticum aestivum); experiment: Test B pre-/postemergence
# How it was run: as §1
# wild oat (Avena fatua) = experiment: Test B pre-/postemergence
# How it was run: as §1
# [13] = test system: bamyardgrass (Echinochloa crus-galli); experiment: Test B flood test
# How it was run: (§2)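 Read-out is a visual response score from 0 (no effect) to 10 (complete control), assigned by comparison with untreated controls. Treatment was applied at the 2-leaf stage, and plants stayed in the greenhouse for twelve to sixteen days before scoring.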
# [14] = test system: duck salad (Heteranthera limosa); experiment: Test B flood test
# How it was run: as §2
# rice (Oryza sativa) = experiment: Test B flood test
# How it was run: as §2
# [15] = test system: smallflower flatsedge (Cyperus difformis); experiment: Test B flood test
# How it was run: as §2
# [16] = Preemergence, Rate 62 g/ha, scale of 0 to 10
# [17] = Rate 62 g/ha, Postemergence (flood test)
# [18] = Rate 125 g/ha, Postemergence section (flood test species)
# [19] = Rate 250 g/ha, Postemergence (flood test species)
smiles,measurement,setting,value
O=C(c1cccc(C(F)(F)F)c1)c1ccnc(-n2ccc(C(F)(F)F)n2)n1 [Compound 70],"Plant response rating, Bedstraw",[1]; [16],0
same,Bedstraw plant response rating,"[1]; Rate 62 g/ha, Postemergence",1
same,Bedstraw plant response rating,"[1]; Rate 125 g/ha, Postemergence",1
same,"Plant response rating, Bedstraw","[1]; Rate 125 g/ha, Preemergence",0
same,"Plant response rating, Bedstraw","[1]; Rate 250 g/ha, Postemergence",1
same,"Plant response rating, Bedstraw","[1]; Rate 250 g/ha, Preemergence",0
same,"Plant response rating, Blackgrass",[2]; [16],0
same,Blackgrass plant response rating,"[2]; Rate 62 g/ha, Postemergence",0
same,Blackgrass plant response rating,"[2]; Rate 125 g/ha, Postemergence",0
same,"Plant response rating, Blackgrass","[2]; Rate 125 g/ha, Preemergence",0
same,"Plant response rating, Blackgrass","[2]; Rate 250 g/ha, Postemergence",0
same,"Plant response rating, Blackgrass","[2]; Rate 250 g/ha, Preemergence",0
same,B. signalgrass plant response rating,"[3]; Rate 62 g/ha, Postemergence",0
same,B. signalgrass plant response rating,"[3]; Rate 62 g/ha, Preemergence",0
same,B. signalgrass plant response rating,"[3]; Rate 125 g/ha, Postemergence",0
same,"Plant response rating, B. signalgrass","[3]; Rate 125 g/ha, Preemergence",0
same,"Plant response rating, B. signalgrass","[3]; Rate 250 g/ha, Postemergence",1
same,"Plant response rating, B. signalgrass","[3]; Rate 250 g/ha, Preemergence",0
same,"Plant response rating, Cocklebur",[4]; [16],0
same,Cocklebur plant response rating,"[4]; Rate 62 g/ha, Postemergence",1
same,Cocklebur plant response rating,"[4]; Rate 125 g/ha, Postemergence",2
same,"Plant response rating, Cocklebur","[4]; Rate 125 g/ha, Preemergence",0
same,"Plant response rating, Cocklebur","[4]; Rate 250 g/ha, Postemergence",2
same,"Plant response rating, Cocklebur","[4]; Rate 250 g/ha, Preemergence",0
same,"Plant response rating, Corn",corn (Zea mays); [16],0
same,Corn plant response rating,"corn (Zea mays); Rate 62 g/ha, Postemergence",1
same,Corn plant response rating,"corn (Zea mays); Rate 125 g/ha, Postemergence",1
same,"Plant response rating, Corn","corn (Zea mays); Rate 125 g/ha, Preemergence",0
same,"Plant response rating, Corn","corn (Zea mays); Rate 250 g/ha, Postemergence",2
same,"Plant response rating, Corn","corn (Zea mays); Rate 250 g/ha, Preemergence",0
same,"Plant response rating, Crabgrass",[5]; [16],0
same,Crabgrass plant response rating,"[5]; Rate 62 g/ha, Postemergence",0
same,Crabgrass plant response rating,"[5]; Rate 125 g/ha, Postemergence",1
same,"Plant response rating, Crabgrass","[5]; Rate 125 g/ha, Preemergence",0
same,"Plant response rating, Crabgrass","[5]; Rate 250 g/ha, Postemergence",1
same,"Plant response rating, Crabgrass","[5]; Rate 250 g/ha, Preemergence",0
same,"Plant response rating, Giant foxtail",[6]; [16],0
same,Giant foxtail plant response rating,"[6]; Rate 62 g/ha, Postemergence",0
same,Giant foxtail plant response rating,"[6]; Rate 125 g/ha, Postemergence",0
same,"Plant response rating, Giant foxtail","[6]; Rate 125 g/ha, Preemergence",0
same,"Plant response rating, Giant foxtail","[6]; Rate 250 g/ha, Postemergence",0
same,"Plant response rating, Giant foxtail","[6]; Rate 250 g/ha, Preemergence",0
same,"Plant response rating, Morningglory",[7]; [16],0
same,Morningglory plant response rating,"[7]; Rate 62 g/ha, Postemergence",1
same,Morningglory plant response rating,"[7]; Rate 125 g/ha, Postemergence",1
same,"Plant response rating, Morningglory","[7]; Rate 125 g/ha, Preemergence",0
same,"Plant response rating, Morningglory","[7]; Rate 250 g/ha, Postemergence",2
same,"Plant response rating, Morningglory","[7]; Rate 250 g/ha, Preemergence",0
same,"Plant response rating, Redroot pigweed",[8]; [16],0
same,Redroot pigweed plant response rating,"[8]; Rate 62 g/ha, Postemergence",0
same,Redroot pigweed plant response rating,"[8]; Rate 125 g/ha, Postemergence",2
same,"Plant response rating, Redroot pigweed","[8]; Rate 125 g/ha, Preemergence",0
same,"Plant response rating, Redroot pigweed","[8]; Rate 250 g/ha, Postemergence",3
same,"Plant response rating, Redroot pigweed","[8]; Rate 250 g/ha, Preemergence",0
same,"Plant response rating, Nutsedge",[9]; [16],0
same,Nutsedge plant response rating,"[9]; Rate 62 g/ha, Postemergence",0
same,Nutsedge plant response rating,"[9]; Rate 125 g/ha, Postemergence",0
same,"Plant response rating, Nutsedge","[9]; Rate 125 g/ha, Preemergence",0
same,"Plant response rating, Nutsedge","[9]; Rate 250 g/ha, Postemergence",0
same,"Plant response rating, Rape",rape (Brassica napus); [16],0
same,Rape plant response rating,"rape (Brassica napus); Rate 62 g/ha, Postemergence",0
same,Rape plant response rating,"rape (Brassica napus); Rate 125 g/ha, Postemergence",1
same,"Plant response rating, Rape","rape (Brassica napus); Rate 125 g/ha, Preemergence",0
same,"Plant response rating, Rape","rape (Brassica napus); Rate 250 g/ha, Postemergence",1
same,"Plant response rating, Rape","rape (Brassica napus); Rate 250 g/ha, Preemergence",0
same,"Plant response rating, Soybean",soybean (Glycine max); [16],0
same,Soybean plant response rating,"soybean (Glycine max); Rate 62 g/ha, Postemergence",1
same,Soybean plant response rating,"soybean (Glycine max); Rate 125 g/ha, Postemergence",2
same,"Plant response rating, Soybean","soybean (Glycine max); Rate 125 g/ha, Preemergence",0
same,"Plant response rating, Soybean","soybean (Glycine max); Rate 250 g/ha, Postemergence",3
same,"Plant response rating, Soybean","soybean (Glycine max); Rate 250 g/ha, Preemergence",0
same,"Plant response rating, Sugarbeets",[10]; [16],0
same,Sugarbeets plant response rating,"[10]; Rate 62 g/ha, Postemergence",0
same,Sugarbeets plant response rating,"[10]; Rate 125 g/ha, Postemergence",1
same,"Plant response rating, Sugarbeets","[10]; Rate 125 g/ha, Preemergence",0
same,"Plant response rating, Sugarbeets","[10]; Rate 250 g/ha, Postemergence",2
same,"Plant response rating, Sugarbeets","[10]; Rate 250 g/ha, Preemergence",0
same,"Plant response rating, Velvetleaf",[11]; [16],0
same,Velvetleaf plant response rating,"[11]; Rate 62 g/ha, Postemergence",0
same,Velvetleaf plant response rating,"[11]; Rate 125 g/ha, Postemergence",1
same,"Plant response rating, Velvetleaf","[11]; Rate 125 g/ha, Preemergence",0
same,"Plant response rating, Velvetleaf","[11]; Rate 250 g/ha, Postemergence",1
same,"Plant response rating, Velvetleaf","[11]; Rate 250 g/ha, Preemergence",0
same,"Plant response rating, Wheat",[12]; [16],0
same,Wheat plant response rating,"[12]; Rate 62 g/ha, Postemergence",0
same,Wheat plant response rating,"[12]; Rate 125 g/ha, Postemergence",0
same,"Plant response rating, Wheat","[12]; Rate 125 g/ha, Preemergence",0
same,"Plant response rating, Wheat","[12]; Rate 250 g/ha, Postemergence",0
same,"Plant response rating, Wheat","[12]; Rate 250 g/ha, Preemergence",0
same,"Plant response rating, Wild oats",wild oat (Avena fatua); [16],0
same,Wild oats plant response rating,"wild oat (Avena fatua); Rate 62 g/ha, Postemergence",0
same,Wild oats plant response rating,"wild oat (Avena fatua); Rate 125 g/ha, Postemergence",0
same,"Plant response rating, Wild oats","wild oat (Avena fatua); Rate 125 g/ha, Preemergence",0
same,"Plant response rating, Wild oats","wild oat (Avena fatua); Rate 250 g/ha, Postemergence",0
same,"Plant response rating, Wild oats","wild oat (Avena fatua); Rate 250 g/ha, Preemergence",0
same,Barnyardgrass plant response rating,[13]; [17],0
same,Barnyardgrass plant response rating,[13]; [18],0
same,"Plant response rating, Barnyardgrass",[13]; [19],0
same,Ducksalad plant response rating,[14]; [17],0
same,Ducksalad plant response rating,[14]; [18],0
same,"Plant response rating, Ducksalad",[14]; [19],0
same,Rice plant response rating,rice (Oryza sativa); [17],0
same,Rice plant response rating,rice (Oryza sativa); [18],0
same,"Plant response rating, Rice",rice (Oryza sativa); [19],0
same,S. Flatsedge plant response rating,[15]; [17],0
same,S. Flatsedge plant response rating,[15]; [18],0
same,"Plant response rating, S. Flatsedge",[15]; [19],0
